# How the values were obtained:
# Plasmodium falciparum [1] = test: Antimalarial activity against chloroquine-sensitive Plasmodium falciparum 3D7; assay type: functional
# Candida albicans [2] = test: Antifungal activity against Candida albicans ATCC 76615 incubated for 24 hrs by microbroth dilution method; assay type: functional
# [3] = tested on: Meyerozyma guilliermondii; test: Antifungal activity against Meyerozyma guilliermondii assessed as zone of inhibition; assay type: functional
# Pichia norvegensis = test: Antifungal activity against Candida mycoderma incubated for 24 hrs; assay type: functional
# Candida albicans [4] = test: Antifungal activity against Candida albicans ATCC 2091; assay type: functional
# Aspergillus niger [5] = test: Antifungal activity against Aspergillus niger ATCC 9029; assay type: functional
# Pichia kudriavzevii = test: Antifungal activity against Candida krusei ATCC 6258; assay type: functional
# Plasmodium falciparum [6] = test: Antiplasmodial activity against Plasmodium falciparum W2 infected in red blood cells (unknown origin) incubated for 72 hrs by LDH assay; assay type: functional, organism-based, Red blood cell; settings: W2, Erythrocyte
# [7] = tested on: Mycobacterium tuberculosis; test: Antibacterial activity against Mycobacterium tuberculosis H37Rv; assay type: functional
# [8] = tested on: Mycobacterium tuberculosis; test: Antibacterial activity against Mycobacterium tuberculosis H37Rv assessed as reduction in relative light unit at 2 microg/ml incubated for 72 hrs by luciferase reporter phage assay relative to control; assay type: functional; set-up: scale not given: the % may be the effect or the level left; settings: dose 2 µg/ml
# [9] = tested on: Mycobacterium tuberculosis; test: Antibacterial activity against Mycobacterium tuberculosis; assay type: functional
# Aspergillus niger [10] = test: Antifungal activity against Aspergillus niger assessed as zone of inhibition; assay type: functional
# Candida albicans [11] = test: Antifungal activity against Candida albicans assessed as zone of inhibition; assay type: functional
# [12] = tested on: Mycobacterium tuberculosis; test: Potency index, ratio of pyrazinamide MIC to test compound MIC for antibacterial activity against Mycobacterium tuberculosis H37Rv; assay type: functional
# [13] = tested on: Mycobacterium tuberculosis; test: Antibacterial activity against Mycobacterium tuberculosis H37Rv by alamar blue method; assay type: functional
# [14] = target: T1, Prostaglandin G/H synthase 2 (Rattus norvegicus, UniProt P35355); test: Inhibition of COX2 in rat macrophages using arachidonic acid as substrate preincubated with compound for 30 mins followed by substrate addition and measured after 20 mins by EIA; assay type: cell-based, Macrophage
# T1 sequence (P35355 whole entry): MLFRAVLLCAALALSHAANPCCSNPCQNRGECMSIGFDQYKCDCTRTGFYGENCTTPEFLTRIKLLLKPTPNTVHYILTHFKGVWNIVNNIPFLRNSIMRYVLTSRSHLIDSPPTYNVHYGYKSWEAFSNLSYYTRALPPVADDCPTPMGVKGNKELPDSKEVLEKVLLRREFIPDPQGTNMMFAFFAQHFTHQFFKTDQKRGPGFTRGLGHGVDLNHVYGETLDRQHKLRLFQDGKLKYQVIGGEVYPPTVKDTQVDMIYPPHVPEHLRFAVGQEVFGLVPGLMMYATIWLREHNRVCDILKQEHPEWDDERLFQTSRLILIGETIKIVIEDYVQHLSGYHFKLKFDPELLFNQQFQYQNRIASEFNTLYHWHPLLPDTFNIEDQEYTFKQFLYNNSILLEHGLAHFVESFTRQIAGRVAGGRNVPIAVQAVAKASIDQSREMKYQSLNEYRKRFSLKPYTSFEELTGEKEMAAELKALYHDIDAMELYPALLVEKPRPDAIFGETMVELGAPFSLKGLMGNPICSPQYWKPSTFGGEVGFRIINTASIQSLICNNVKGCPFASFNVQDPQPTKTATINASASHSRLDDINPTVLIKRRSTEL
# [15] = target: T2, Polyunsaturated fatty acid 5-lipoxygenase (Rattus norvegicus, UniProt P12527); test: Inhibition of 5-LOX in Sprague-Dawley rat leukocytes preincubated for 30 mins followed by calcium ionophore A23187 addition and measured after 20 mins by EIA; assay type: cell-based, Leucocyte
# T2 sequence (P12527 whole entry): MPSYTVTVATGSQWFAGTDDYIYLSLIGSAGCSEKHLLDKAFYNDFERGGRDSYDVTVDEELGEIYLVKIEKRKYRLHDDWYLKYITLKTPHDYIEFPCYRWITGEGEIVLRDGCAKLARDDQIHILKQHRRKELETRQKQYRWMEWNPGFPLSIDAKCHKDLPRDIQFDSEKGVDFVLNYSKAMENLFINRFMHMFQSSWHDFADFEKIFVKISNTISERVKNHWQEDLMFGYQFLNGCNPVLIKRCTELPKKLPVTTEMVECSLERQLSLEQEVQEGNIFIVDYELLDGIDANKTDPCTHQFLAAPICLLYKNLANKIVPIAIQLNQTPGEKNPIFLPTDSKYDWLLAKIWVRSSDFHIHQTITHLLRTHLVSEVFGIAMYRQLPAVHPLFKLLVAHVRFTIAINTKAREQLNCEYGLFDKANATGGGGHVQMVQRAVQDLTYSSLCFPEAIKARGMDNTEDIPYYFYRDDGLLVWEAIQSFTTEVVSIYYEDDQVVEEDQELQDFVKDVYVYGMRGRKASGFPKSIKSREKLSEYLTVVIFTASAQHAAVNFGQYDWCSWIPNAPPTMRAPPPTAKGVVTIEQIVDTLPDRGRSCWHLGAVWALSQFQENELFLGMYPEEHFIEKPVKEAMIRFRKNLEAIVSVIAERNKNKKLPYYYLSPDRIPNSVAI
# [16] = Selectivity index, ratio of IC50 for inhibition of COX2 in rat macrophages to IC50 for inhibition of COX1 in calf endotheliocyte
# Candida albicans [17] = test: Antifungal activity against Candida albicans; assay type: functional, organism-based
# Mus musculus = test: Antiinflammatory activity against ear oedema mouse model assessed as inhibition of xylene induced edema; assay type: functional
# MCF7 = test: Cytotoxicity against human MCF7 cells measured 24 hrs by MTT assay; assay type: functional, cell-based; settings: MCF7, 24 h
# [18] = tested on: Mycobacterium tuberculosis; test: Antibacterial activity against Mycobacterium tuberculosis H37Rv (ATTCC 27294) by alamar blue based broth dilution assay; assay type: functional
# [19] = tested on: Mycobacterium tuberculosis; test: Antibacterial activity against Mycobacterium tuberculosis H37Rv assessed as reduction in relative light unit at 5.2 microg/ml incubated for 72 hrs by luciferase reporter phage assay relative to control; assay type: functional; set-up: scale not given: the % may be the effect or the level left; settings: dose 5.2 µg/ml
compound,measurement,setting,value
CC1=C(c2nnc(/N=C3\C(=O)Nc4ccc(Cl)cc43)o2)C(c2ccccc2)NC(=S)N1 (stereo unspecified),MIC,Plasmodium falciparum [1],0.035 µg/mL
Clc1ccc(Cn2c[n+](CCCCCC[n+]3cnn(Cc4ccc(Cl)cc4Cl)c3)cn2)c(Cl)c1.[Br-].[Br-],MIC,Candida albicans [2],22.9 µg/mL
OC(Cn1cncn1)(Cn1cncn1)c1ccc(F)cc1F [FLUCONAZOLE],inhibition zone (IZ),[3],21 mm
same,MIC,Pichia norvegensis,4 µg/mL
same,MIC,Candida albicans [4],6.25 µg/mL
same,MIC,Aspergillus niger [5],12.5 µg/mL
same,MIC,Pichia kudriavzevii,3.12 µg/mL
same,MIC,Candida albicans [2],52.2 µg/mL
Cc1cccc(C)c1Nc1nc(OCc2cn(CCCNc3cccc4cc(Cl)ccc34)nn2)nc(N(C)C)n1,IC50,Plasmodium falciparum [6],0.73 µM
O=C1Oc2cc(OCCN(N3CCOCC3)N3CCOCC3)ccc2C2c3ccccc3OC12 (stereo unspecified),MIC,[7],3.12 µg/mL
CO[C@H]1/C=C/O[C@@]2(C)Oc3c(C)c(O)c4c(O)c(c(/C=N/N5CCN(C)CC5)c(O)c4c3C2=O)NC(=O)/C(C)=C\C=C\[C@H](C)[C@H](O)[C@@H](C)[C@@H](O)[C@@H](C)[C@H](OC(C)=O)[C@@H]1C [RIFAMPIN],Activity,[8],87%
O=C1NN=C(/N=C/c2cccc(Cl)c2)/C1=N\Nc1nc2c([N+](=O)[O-])cccc2s1,MIC,[9],1.66 µg/mL
COc1cc(Nc2nc(OCc3cn(CCCNc4cccc5cc(Cl)ccc45)nn3)nc(N3CCOCC3)n2)cc(OC)c1,IC50,Plasmodium falciparum [6],1.73 µM
CCCCCCCCCCCCCCCC[n+]1cnn(Cc2ccc(Cl)cc2Cl)c1.[Br-],MIC,Candida albicans [2],30 µg/mL
COc1cc(Nc2nc(OCc3cn(CCNc4cccc5cc(Cl)ccc45)nn3)nc(N(C)C)n2)cc(OC)c1,IC50,Plasmodium falciparum [6],1.15 µM
Cc1cccc(C)c1Nc1nc(OCc2cn(CCNc3cccc4cc(Cl)ccc34)nn2)nc(N(C)C)n1,IC50,Plasmodium falciparum [6],1.69 µM
O=C1Nc2cc3c(-c4ccccc4)c(-c4ccccc4)oc(=O)c3cc2C(c2ccccc2Cl)N1 (stereo unspecified),MIC,[7],62.5 µg/mL
COc1ccc(-c2nc(-c3ccccc3)c(-c3ccccc3)n2C(NN2CCCCC2)c2ccccc2)c(OC)c1OC (stereo unspecified),inhibition zone (IZ),Aspergillus niger [10],26 mm
same,inhibition zone (IZ),Candida albicans [11],29 mm
COc1ccc(-c2nc(-c3ccccc3)c(-c3ccccc3)n2C(NN(c2ccccc2)c2ccccc2)c2ccccc2)c(OC)c1OC (stereo unspecified),inhibition zone (IZ),Aspergillus niger [10],27 mm
same,inhibition zone (IZ),Candida albicans [11],28 mm
O=C1Nc2ccccc2C12C(c1cccc([N+](=O)[O-])c1)C([N+](=O)[O-])C1CSCN12 (stereo unspecified),MIC,[7],7.6 µM
same,Ratio,[12],6.7
CC1(C)CC[C@]2(C(=O)O)CC[C@]3(C)C(=CC[C@@H]4[C@@]5(C)CC[C@H](OC(=O)/C=C/c6ccccc6)C(C)(C)[C@@H]5CC[C@]43C)[C@@H]2C1,inhibition zone (IZ),[3],31 mm
c1c[nH]c(Cc2nc3ccccc3c3cc[nH]c23)c1,MIC,[13],3.3 µg/mL
O=C1Nc2cc3c(-c4ccccc4)c(-c4ccccc4)oc(=O)c3cc2C(c2ccc([N+](=O)[O-])cc2)N1 (stereo unspecified),MIC,[7],40 µg/mL
CS(=O)(=O)c1ccc(-c2nc(SCCN(O)C(N)=O)nn2-c2ccc(Br)cc2)cc1,IC50,[14],0.15 µM
same,IC50,[15],0.85 µM
same,Ratio IC50,[16],0.015
C[C@@H]([C@H](N)C(=O)N[C@H](C(=O)O)[C@H]1O[C@@H](n2ccc(=O)[nH]c2=O)[C@H](O)[C@@H]1O)[C@H](O)c1ccc(O)cn1 [NIKKOMYCIN],IC50,Candida albicans [17],0.393 µg/mL
NC(=O)c1cnccn1 [PYRAZINAMIDE],MIC,[7],50.1 µM
CS(=O)(=O)c1ccc(-c2nc(S(C)(=O)=O)nn2-c2ccc(Cl)cc2)cc1,inhibition (INH),Mus musculus,77.2%
O=C(/C=C/c1ccc(Cl)cc1Cl)c1ccc(OCC(O)(Cn2cncn2)c2ccc(F)cc2F)cc1 (stereo unspecified),MIC50,Candida albicans [17],0.12 µg/mL
COc1cc(/C=C/c2ccc(O)c(/C=N/NC(N)=S)c2)cc(OC)c1,IC50,MCF7,25 µM
CSc1nc(-c2ccc(S(N)(=O)=O)cc2)n(-c2ccc(Cl)cc2)n1,inhibition (INH),Mus musculus,80%
CC[C@@H](CO)NCCN[C@@H](CC)CO [ETHAMBUTOL],MIC,[7],7.6 µM
O=C(NN1C(=O)CSC1c1ccc([N+](=O)[O-])cc1)c1ccc(NCN2c3ccccc3Sc3ccccc32)cc1 (stereo unspecified),MIC,[7],3.12 µg/mL
COc1cc(Nc2nc(OCc3cn(CCCNc4cccc5cc(Cl)ccc45)nn3)nc(N(C)C)n2)cc(OC)c1,IC50,Plasmodium falciparum [6],1.2 µM
COC1=CC(=O)C[C@@H](C)[C@]12Oc1c(Cl)c(OC)cc(OC)c1C2=O [GRISEOFULVIN],inhibition zone (IZ),Aspergillus niger [10],36 mm
same,inhibition zone (IZ),Candida albicans [11],39 mm
Cc1ccc(-c2cc(C(F)(F)F)nn2-c2ccc(S(N)(=O)=O)cc2)cc1 [CELECOXIB],inhibition (INH),Mus musculus,64.9%
NC(Cc1cc2ccccc2c2ccccc12)C(=O)N[C@H](C(=O)O)[C@H]1O[C@@H](n2ccc(=O)[nH]c2=O)[C@H](O)[C@@H]1O (stereo partly specified),IC50,Candida albicans [17],0.31 µg/mL
O=C1c2cccc3c(Br)ccc(c23)C(=O)N1CCCn1c[n+](Cc2ccc(F)cc2F)cn1.[Br-],MIC,Pichia norvegensis,4 µg/mL
O=C1Nc2cc3c(-c4ccccc4)c(-c4ccccc4)oc(=O)c3cc2C(c2ccc(Cl)cc2)N1 (stereo unspecified),MIC,[7],50 µg/mL
Cn1ccnc1-c1nn2cc(-c3ccc(-c4ccc([N+](=O)[O-])cc4)cc3)nc2s1,MIC,[18],3.14 µg/mL
COc1cc(/C=C/c2ccc(O)cc2)cc(OC)c1 [PTEROSTILBENE],IC50,MCF7,65 µM
NNC(=O)c1ccncc1 [ISONIAZID],MIC,[7],0.2 µg/mL
CCCCCCCCCCC(=O)N[C@H](C(=O)O)[C@H]1O[C@@H](n2ccc(=O)[nH]c2=O)[C@H](O)[C@@H]1O,MIC,Candida albicans [17],40 µg/mL
CS(=O)(=O)c1ccc(-c2nc(S(C)(=O)=O)nn2-c2ccc(Br)cc2)cc1,inhibition (INH),Mus musculus,70.8%
COc1ccc(-c2nc(-c3ccccc3)c(-c3ccccc3)n2C(NN2CCNCC2)c2ccccc2)c(OC)c1OC (stereo unspecified),inhibition zone (IZ),Aspergillus niger [10],27 mm
same,inhibition zone (IZ),Candida albicans [11],28 mm
CC(=O)OC[C@H]1O[C@@H](OCc2cn(Cc3ccc4ccccc4n3)nn2)[C@H](OC(C)=O)[C@@H](OC(C)=O)[C@@H]1OC(C)=O,Activity,[19],76.41%
NC(=O)OC[C@H](O)[C@@H](O)[C@H](N)C(=O)N[C@H](C(=O)O)[C@H]1O[C@@H](n2cc(C(=O)O)c(=O)[nH]c2=O)[C@H](O)[C@@H]1O,MIC,Candida albicans [17],320 µg/mL
CCn1cc(C(=O)NN2C(=O)CSC2c2ccccc2OC)c(=O)c2cc(F)c(N3CCNCC3)cc21 (stereo unspecified),MIC,Candida albicans [4],3.12 µg/mL
same,MIC,Aspergillus niger [5],12.5 µg/mL
same,MIC,Pichia kudriavzevii,1.59 µg/mL
CSc1nc(-c2ccc(S(N)(=O)=O)cc2)n(-c2ccc(F)cc2)n1,inhibition (INH),Mus musculus,75%
COc1ccc(-c2nc(-c3ccccc3)c(-c3ccccc3)n2C(NN(c2ccccc2)c2cccc3ccccc23)c2ccccc2)c(OC)c1OC (stereo unspecified),inhibition zone (IZ),Aspergillus niger [10],24 mm
same,inhibition zone (IZ),Candida albicans [11],20 mm
O=C(O)c1cn(C2CC2)c2cc(N3CCNCC3)c(F)cc2c1=O [CIPROFLOXACIN],MIC,[13],4.7 µg/mL
CCN(CC)CCCC(C)Nc1ccnc2cc(Cl)ccc12 (stereo unspecified) [CHLOROQUINE],MIC,Plasmodium falciparum [1],0.125 µg/mL

# Reference: ChEMBL document CHEMBL5257034, “Hybrid molecules: The privileged scaffolds for various pharmaceuticals” (Eur J Med Chem, 2016)
